According to US20120135013A1, “CD45 and Methods and Compounds Related Thereto” (priority 2007, published 2012):

Tests used:
LF = LF (Bacillus anthracis, UniProt P15917); format: biochemical
[1] = tested on: Sterne B. anthracis spores; format: cell-based; conditions: 10 μM
Cdc25B [2] = target: T1, Cdc25B (Homo sapiens, UniProt P30305); assay: biochemical; conditions: read-out: % Inhibition (cdc25B)
T1 sequence (P30305 1-580): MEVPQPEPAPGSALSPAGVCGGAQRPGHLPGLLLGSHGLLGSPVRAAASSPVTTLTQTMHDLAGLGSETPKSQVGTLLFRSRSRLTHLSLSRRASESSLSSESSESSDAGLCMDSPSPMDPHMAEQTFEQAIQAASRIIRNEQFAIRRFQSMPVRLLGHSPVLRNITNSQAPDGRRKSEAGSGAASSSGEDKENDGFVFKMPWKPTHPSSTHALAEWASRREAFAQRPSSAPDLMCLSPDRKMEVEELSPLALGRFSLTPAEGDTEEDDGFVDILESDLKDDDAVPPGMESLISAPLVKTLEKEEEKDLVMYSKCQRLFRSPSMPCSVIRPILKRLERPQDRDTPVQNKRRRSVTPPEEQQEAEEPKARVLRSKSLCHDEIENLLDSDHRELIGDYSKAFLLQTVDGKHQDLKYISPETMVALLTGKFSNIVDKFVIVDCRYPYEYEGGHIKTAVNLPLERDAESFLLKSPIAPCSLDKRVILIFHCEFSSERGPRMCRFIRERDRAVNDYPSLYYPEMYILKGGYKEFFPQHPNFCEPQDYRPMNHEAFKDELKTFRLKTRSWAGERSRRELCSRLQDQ

proteasome = format: biochemical, mouse
Ames B. anthracis spores = conditions: in vivo
MEK = format: cell-based, mouse
CD45 [3] = assay: immunoblot of CD45 protein levels; format: cell-based, mouse; conditions: 72 hours, vs untreated or scrambled PMO
CD45 [4] = assay: CD45 phosphatase activity after immunoprecipitation from cell lysates; format: cell-based, mouse; conditions: 8 μM, 72 hours
Cdc25B [5] = target: T1, Cdc25B; conditions: Lazo et al. (2002); cited from earlier work
CD45 [6] = target: T2, CD45 (Homo sapiens, UniProt P08575); assay: biochemical; conditions: read-out: inhibition of the phosphatase activity of CD45
T2 construct: purchased Upstate (Lake Placid, N.Y.)
T2 sequence (P08575 26-1306): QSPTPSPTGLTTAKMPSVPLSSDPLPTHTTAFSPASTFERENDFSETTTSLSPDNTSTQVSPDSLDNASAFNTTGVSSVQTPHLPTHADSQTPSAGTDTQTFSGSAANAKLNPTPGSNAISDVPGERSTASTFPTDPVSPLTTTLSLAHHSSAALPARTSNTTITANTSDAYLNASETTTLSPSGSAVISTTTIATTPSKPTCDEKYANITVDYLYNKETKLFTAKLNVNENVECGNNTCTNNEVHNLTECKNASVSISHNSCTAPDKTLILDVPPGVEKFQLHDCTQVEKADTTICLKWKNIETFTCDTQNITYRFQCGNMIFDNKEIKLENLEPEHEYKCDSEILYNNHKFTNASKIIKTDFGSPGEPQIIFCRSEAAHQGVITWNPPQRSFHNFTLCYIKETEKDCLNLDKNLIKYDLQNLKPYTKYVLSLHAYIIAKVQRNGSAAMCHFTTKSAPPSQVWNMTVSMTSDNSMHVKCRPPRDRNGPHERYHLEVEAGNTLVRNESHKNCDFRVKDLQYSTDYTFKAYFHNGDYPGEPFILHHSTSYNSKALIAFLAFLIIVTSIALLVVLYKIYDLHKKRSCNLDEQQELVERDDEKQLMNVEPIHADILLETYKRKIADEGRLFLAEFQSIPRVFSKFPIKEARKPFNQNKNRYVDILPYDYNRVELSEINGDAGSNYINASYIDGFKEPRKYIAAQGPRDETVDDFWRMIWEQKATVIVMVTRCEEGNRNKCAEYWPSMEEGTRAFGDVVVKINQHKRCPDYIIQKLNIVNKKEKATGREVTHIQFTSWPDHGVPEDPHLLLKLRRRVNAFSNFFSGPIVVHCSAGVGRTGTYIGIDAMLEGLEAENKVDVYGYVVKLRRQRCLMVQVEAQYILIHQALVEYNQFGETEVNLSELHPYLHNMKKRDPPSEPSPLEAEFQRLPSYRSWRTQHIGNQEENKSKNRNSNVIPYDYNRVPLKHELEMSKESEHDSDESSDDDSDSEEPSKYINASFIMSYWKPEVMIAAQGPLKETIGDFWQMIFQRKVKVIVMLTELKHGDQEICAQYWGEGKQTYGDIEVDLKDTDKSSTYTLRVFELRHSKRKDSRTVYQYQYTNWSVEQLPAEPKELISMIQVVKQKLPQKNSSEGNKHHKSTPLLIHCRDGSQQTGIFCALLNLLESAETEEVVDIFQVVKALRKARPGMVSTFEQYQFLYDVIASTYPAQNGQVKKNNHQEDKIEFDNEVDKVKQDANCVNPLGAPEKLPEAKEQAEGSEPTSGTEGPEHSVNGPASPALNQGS

Sequence of LF (P15917 34-809 limits assumed): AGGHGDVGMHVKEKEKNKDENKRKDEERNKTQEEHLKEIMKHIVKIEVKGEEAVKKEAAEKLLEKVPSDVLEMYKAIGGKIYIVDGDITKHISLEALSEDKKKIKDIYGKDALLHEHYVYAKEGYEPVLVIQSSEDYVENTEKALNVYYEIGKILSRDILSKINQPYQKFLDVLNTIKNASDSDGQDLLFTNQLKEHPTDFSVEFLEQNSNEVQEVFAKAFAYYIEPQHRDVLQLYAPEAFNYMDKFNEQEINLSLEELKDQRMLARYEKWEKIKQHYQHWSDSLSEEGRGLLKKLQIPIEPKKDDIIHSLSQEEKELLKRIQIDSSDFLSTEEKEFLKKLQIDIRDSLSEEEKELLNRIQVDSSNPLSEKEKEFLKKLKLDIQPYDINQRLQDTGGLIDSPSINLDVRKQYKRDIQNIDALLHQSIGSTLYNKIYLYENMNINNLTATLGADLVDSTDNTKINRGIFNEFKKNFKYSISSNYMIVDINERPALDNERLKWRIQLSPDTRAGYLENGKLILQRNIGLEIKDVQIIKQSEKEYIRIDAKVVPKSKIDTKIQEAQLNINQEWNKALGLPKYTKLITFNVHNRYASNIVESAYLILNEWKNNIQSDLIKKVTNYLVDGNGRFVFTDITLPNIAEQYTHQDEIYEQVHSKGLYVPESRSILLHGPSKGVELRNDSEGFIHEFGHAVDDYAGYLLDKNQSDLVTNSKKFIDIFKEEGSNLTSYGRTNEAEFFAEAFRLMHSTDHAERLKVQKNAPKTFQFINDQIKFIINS

In the case of `NC(=O)CCCSC1=CC(=O)c2ccccc2C1=O` [NSC 270012], the “inhibition of LF enzymatic activity (cleavage of peptide substrate)” value (“inhibition of LF enzymatic activity” for short) (LF) is reported as “None of the compounds were observed to inhibit”, the “anti-microbial activity (growth of the bacteria)” value [1] is reported as “do not inhibit the growth of the bacteria” and the inhibition at 10 µM (Cdc25B [2]) is reported as 72%. For the same compound, the “inhibition of proteasome activity” value (proteasome) was “neither NSC 95397 nor NSC 270012 inhibited proteasome activity”.
For `O=C1C=C(SCCO)C(=O)c2ccccc21` [NSC 148596], the “inhibition of LF enzymatic activity” value (LF) was “None of the compounds were observed to inhibit” and the inhibition at 10 µM (Cdc25B [2]) was 67%.
With “CD45 PMO (CCACAAACCCATGGTCATATC; all phosphorodiamidate morpholino (PMO))” the “antibody titers in surviving mice” value (Ames B. anthracis spores) was “developed protective antigen specific and lethal toxin neutralizing antibody titers”, the “protection on re-challenge with Ames B. anthracis spores” value (Ames B. anthracis spores) was “completely protected” and the survival (Ames B. anthracis spores; 100 mg/kg/day) was “greatly increased”. For the same compound, the MEK cleavage (MEK) was “MEK cleavage was not prevented”, the “CD45 protein levels by immunoblot” value (CD45 [3]) was “dose dependent reduction” and the “CD45 phosphatase activity following immunoprecipitation” value (CD45 [4]) was “concomitant reduction in CD45 phosphatase activity”.
For `NC(=O)CCSC1=CC(=O)c2ccccc2C1=O` [NSC 270011], the “inhibition of LF enzymatic activity” value (LF) was “None of the compounds were observed to inhibit” and the inhibition at 10 µM (Cdc25B [2]) was 25%.
For `Cc1ccc2c(c1C)-c1c(ccc(C)c1C)C(=O)C2=O` [NSC 135880], the “inhibition of LF enzymatic activity” value (LF) is given as “None of the compounds were observed to inhibit”, the “inhibition of Cdc25, previously reported” value (Cdc25B [5]) is given as “previously reported to inhibit Cdc25” and the inhibition at 10 µM (Cdc25B [2]) is given as 99%.
For `O=C1C(SCCO)=C(SCCO)C(=O)c2ccccc21` [NSC 95397], the “inhibition of LF enzymatic activity” value (LF) is listed as “None of the compounds were observed to inhibit”, the “inhibition of Cdc25, previously reported” value (Cdc25B [5]) is listed as “previously reported to inhibit Cdc25” and the “anti-microbial activity (growth of the bacteria)” value [1] is listed as “do not inhibit the growth of the bacteria”. For the same compound, the inhibition at 10 µM (CD45 [6]) was roughly 94%, the inhibition at 10 µM (Cdc25B [2]) was 83% and the “inhibition of proteasome activity” value (proteasome) was “neither NSC 95397 nor NSC 270012 inhibited proteasome activity”.
